According to ChEMBL document CHEMBL1138964, “Synthesis and efficacy of 1-[bis(4-fluorophenyl)-methyl]piperazine derivatives for acetylcholinesterase inhibition, as a stimulant of central cholinergic neurotransmission in Alzheimer's disease” (Bioorg Med Chem Lett, 2006):

How the values were obtained:
[1] = molecular target: T1, Acetylcholinesterase (Rattus norvegicus, UniProt P37136); assay: Inhibition of rat brain homogenate AchE
T1 sequence (P37136 whole entry): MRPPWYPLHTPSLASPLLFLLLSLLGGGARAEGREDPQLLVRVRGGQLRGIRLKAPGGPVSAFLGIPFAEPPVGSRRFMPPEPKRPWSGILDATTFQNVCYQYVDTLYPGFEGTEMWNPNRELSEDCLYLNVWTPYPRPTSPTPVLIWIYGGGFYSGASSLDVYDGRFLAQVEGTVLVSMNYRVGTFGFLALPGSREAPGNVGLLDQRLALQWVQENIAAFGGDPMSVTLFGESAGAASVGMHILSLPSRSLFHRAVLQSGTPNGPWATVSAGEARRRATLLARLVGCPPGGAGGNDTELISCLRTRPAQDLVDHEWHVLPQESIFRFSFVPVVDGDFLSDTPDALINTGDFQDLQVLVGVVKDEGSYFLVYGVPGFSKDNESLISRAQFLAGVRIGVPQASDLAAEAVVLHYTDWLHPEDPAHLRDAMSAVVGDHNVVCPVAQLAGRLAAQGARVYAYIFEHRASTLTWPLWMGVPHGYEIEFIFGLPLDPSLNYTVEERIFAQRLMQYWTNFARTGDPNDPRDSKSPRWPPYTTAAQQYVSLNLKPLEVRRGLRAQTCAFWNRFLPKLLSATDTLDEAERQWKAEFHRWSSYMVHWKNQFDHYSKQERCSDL

[2] = molecular target: Acetylcholinesterase (Electrophorus electricus, UniProt O42275); assay: Inhibition of electric eel AchE
[3] = molecular target: Acetylcholinesterase (Homo sapiens, UniProt P22303); assay: Inhibition of human serum AchE
[4] = tested on: Rattus norvegicus; assay: Antiamnesic effect against scopolamine-induced memory loss in passive avoidance step-down task paradigm in rat assessed as number of mistakes at 0.1 mg/kg, ip; type: functional; details: route intraperitoneal
[5] = tested on: Rattus norvegicus; assay: Antiamnesic effect in passive avoidance step-down task paradigm in rat assessed as number of mistakes at 0.4 mg/kg, ip; type: functional; details: route intraperitoneal

Acetylcholinesterase (Electrophorus electricus, UniProt O42275), sequence (O42275 whole entry): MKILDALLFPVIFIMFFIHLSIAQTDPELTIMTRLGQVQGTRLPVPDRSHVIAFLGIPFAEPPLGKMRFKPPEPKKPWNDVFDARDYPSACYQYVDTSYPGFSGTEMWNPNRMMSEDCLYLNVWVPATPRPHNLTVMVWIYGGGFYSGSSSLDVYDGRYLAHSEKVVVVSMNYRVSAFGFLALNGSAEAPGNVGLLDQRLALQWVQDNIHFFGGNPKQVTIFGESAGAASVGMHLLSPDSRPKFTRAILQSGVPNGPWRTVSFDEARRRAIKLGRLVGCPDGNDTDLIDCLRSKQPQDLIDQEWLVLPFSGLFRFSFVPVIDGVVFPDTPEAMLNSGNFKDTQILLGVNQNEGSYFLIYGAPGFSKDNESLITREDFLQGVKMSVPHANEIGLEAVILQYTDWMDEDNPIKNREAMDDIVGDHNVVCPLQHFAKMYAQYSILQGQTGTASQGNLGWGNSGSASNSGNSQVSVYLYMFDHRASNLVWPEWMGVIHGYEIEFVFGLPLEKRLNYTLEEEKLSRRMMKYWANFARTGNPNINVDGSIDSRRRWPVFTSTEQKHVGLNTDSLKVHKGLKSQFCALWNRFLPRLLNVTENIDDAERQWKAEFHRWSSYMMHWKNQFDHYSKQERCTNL
Acetylcholinesterase (Homo sapiens, UniProt P22303), sequence (P22303 whole entry): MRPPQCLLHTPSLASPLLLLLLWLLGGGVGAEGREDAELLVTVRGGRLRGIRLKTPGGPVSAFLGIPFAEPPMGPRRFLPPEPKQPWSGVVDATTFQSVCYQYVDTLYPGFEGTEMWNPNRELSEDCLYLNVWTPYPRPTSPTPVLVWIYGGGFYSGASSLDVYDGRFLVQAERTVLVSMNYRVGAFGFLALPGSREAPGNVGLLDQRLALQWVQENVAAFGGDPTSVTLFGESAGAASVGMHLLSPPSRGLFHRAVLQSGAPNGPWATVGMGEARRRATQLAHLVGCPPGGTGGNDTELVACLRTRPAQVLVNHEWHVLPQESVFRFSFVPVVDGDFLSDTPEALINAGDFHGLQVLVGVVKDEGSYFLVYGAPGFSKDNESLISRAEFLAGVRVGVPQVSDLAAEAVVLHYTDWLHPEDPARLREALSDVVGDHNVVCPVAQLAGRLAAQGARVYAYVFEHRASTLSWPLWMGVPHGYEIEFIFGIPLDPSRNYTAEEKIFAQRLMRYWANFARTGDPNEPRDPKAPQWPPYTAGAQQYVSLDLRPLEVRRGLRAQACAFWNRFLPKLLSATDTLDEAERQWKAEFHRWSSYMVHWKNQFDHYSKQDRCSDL

SMILES | IC50 ([1]; read-out: IC50) | IC50 [2] | IC50 [3] | Activity [4] | IC50 [1] | Activity [5]
CN(C)C(=O)Oc1cccc([N+](C)(C)C)c1 [NEOSTIGMINE METHYLSULFATE] | 37.5 nM | 41100 nM |  |  |  | 
Fc1ccc(C(c2ccc(F)cc2)N2CCN(CCN3CCCCC3)CC2)cc1 | 93.7 nM | 135 nM | 126 nM | 12 |  | 
Fc1ccc(C(c2ccc(F)cc2)N2CCN(CCN3CCOCC3)CC2)cc1 | 200 nM | 253 nM | 284 nM | 16 |  | 
Fc1ccc(C(c2ccc(F)cc2)N2CCN(CCN3CCCC3)CC2)cc1 | 18.7 nM | 17.6 nM | 21 nM | 10 |  | 
CC1=C(CCN2CCN(C(c3ccc(F)cc3)c3ccc(F)cc3)CC2)C(=O)C2CCCCC2=N1 (stereo not given) |  | 1210 nM | 1070 nM | 34 | Not Active | 
Cc1nc2ccccn2c(=O)c1CCN1CCN(C(c2ccc(F)cc2)c2ccc(F)cc2)CC1 |  | 2130 nM | 3200 nM | 32 | Not Active | 
Cc1cc2c(cc1CN1CCN(C(c3ccc(F)cc3)c3ccc(F)cc3)CC1)OCO2 |  | 1140 nM | 1340 nM | 33 | Not Active | 
N#Cc1ccccc1-c1ccc(CN2CCN(C(c3ccc(F)cc3)c3ccc(F)cc3)CC2)cc1 | 37.5 nM | 70.5 nM | 73.6 nM | 11 |  | 
CN1[C@@H]2C[C@@H](OC(=O)[C@H](CO)c3ccccc3)C[C@H]1[C@@H]1O[C@@H]12 [SCOPOLAMINE] |  |  |  |  |  | 35
COc1cc(Br)c(CN2CCN(C(c3ccc(F)cc3)c3ccc(F)cc3)CC2)cc1OC |  | 715 nM | 1010 nM | 34 | Not Active | 
